Patent US9677063B2, “Use of a cysteine protease of plasmodium vivax” (SAMSUNG ELECTRONICS CO., LTD., priority 2009, dated 2017)
Square brackets hold non-standard residues; d marks the D form. Peptide text beside a SMILES is read from it. * marks the point of attachment. Sta = CC(C)C[C@H](N)[C@@H](O)CC(=O)O; AMC = Cc1cc(=O)oc2cc(N*)ccc12; Isovaleryl = CC(C)CC(=O)*; Cbz = O=C(OCc1ccccc1)*

Tests used:
[1] = tested on: P. vivax plasmepsin 4 (PvPM4); experiment: Autocatalytic processing of recombinant PvPM4 (SDS-PAGE); assay type: biochemical, Plasmodium vivax; details: pepstatin A 10 μM, 3 h at 37° C.
Method: The reactants were analyzed by 12% SDS-PAGE.

VX-4 [2] = experiment: Substrate hydrolysis kinetics for vivapains (peptide-MCA substrates); assay type: biochemical, Plasmodium vivax
Method: (§1) Cysteine protease activity was ascertained by the hydrolysis of benzyloxycarbonyl-L-leucyl-L-arginine 4-methyl-coumaryl-7-amide (Z-LR-MCA) (Peptide International, Louisville, Ky.). Enzyme (xVX, 30 μl; 200 nM) was added to 100 mM sodium acetate (220 μl, pH 5.5) containing 5 μM Z-LR-MCA and 10 mM DTT. The release of fluorescence was assessed at excitation and emission wavelengths of 355 nm and 460 nm with a SpectraMAX Gemini fluorometer (Molecular Devices, Sunnyvale, Calif.).
(§2) The release of MCA was monitored over 10 min at room temperature as described above. Activities were compared as fluorescence over time. The kinetic constants Km and Vmax were determined using GraphPad software.

VX-4 [3] = experiment: Determination of pH optimum of enzyme activity against peptide substrates; assay type: biochemical, Plasmodium vivax; details: 5 μM substrate, 10 mM DTT, 37° C., pH 4.5-8.5
Method: Enzyme activity was measured as described above.
FIG. 3(C) relates to determination of pH optimum. […] Activity was measured at 37° C. each against Z-FR-MCA (▪), Z-LR-MCA (∘), and Z-RR-MCA (●). Maximal activity was presented as 100%. As shown in FIG. 3(C), the enzymatic activity was highest at pH 5.5. The pH-optimum was substantially different with a substrate containing a basic AA at P2 (Z-RR-MCA) with maximal activity at pH 6.5, and activity seen above pH 8.

rVX-4 [4] = details: E-64 1 μM, in presence of pepstatin A, pH 5.0-7.0, rVX-4 50 nM, 3 h at 37° C.
Method: Recombinant PvPMs expressed in E. coli cells were purified by Ni-NTA chromatography (Qiagen) and refolded as described above. rVX-4 (50 nM) was incubated with PvPMs (20 μg each) in 100 mM sodium acetate (pH 5.0-5.5), 100 mM sodium phosphate (pH 6.0-6.5), or 100 mM Tris-HCl (pH 7.0-7.5) supplemented with 10 mM DTT for 3 h. The experiments were also performed in the presence of E-64 (1 μM) and/or pepstatin A (10 μM, Sigma-Aldrich).
The inventors examined possible roles for VX-4 during maturation of recombinant PvPM4 (rPvPM4), which was expressed in E. coli as above, and the results are shown in FIG. 5(A). […] Recombinant PvPM 4 (20 μg) was incubated with rVX-4 (50 nM) supplemented with 10 mM DTT at different pH values with or without pepstatin A (PepA, 10 μM) or E-64 (1 μM) for 3 h at 37° C. The reactants were analyzed by 12% SDS-PAGE.

rVX-4 [5] = details: fully processed 28 kDa rVX-4
Method: The purified rVX-4 was refolded and activated, and aliquots collected every 30 min were analyzed by 12% SDS-PAGE with Coomassie staining (left). The proteolytic activity of fully processed rVX-4 was analyzed by a gelatin gel-zymogram (right).
For activity gel electrophoresis, the obtained refolded rVX-4 was mixed with SDS-PAGE sample buffer lacking 2-mercaptoethanol and subjected to 12% SDS-PAGE co-polymerized with 0.1% gelatin. The gel was washed with 2% Triton X-100 (30 min), incubated overnight with 100 mM sodium acetate (pH 5.5) containing 10 mM DTT at 37° C. and stained with Coomassie Blue.

rVX-4 [6] = details: rVX-4 1 μM, pH 5.5, 6.5, 7.5, 30 min room temperature, substrate Z-LR-MCA
Method: The optimal pH was assessed in 100 mM sodium acetate (pH 4.5-5.5), 100 mM sodium phosphate (pH 6.0-6.5) and 100 mM Tris-HCl (pH 7.0-8.5). The enzymes (50 nM) were added to each buffer supplemented with 10 mM DTT and 5 μM Z-L-phenylalanyl-L-arginine 4-methyl-coumaryl-7-amide (Z-FR-MCA), Z-leucyl-L-arginine-MCA (Z-LR-MCA), or Z-L-arginyl-L-arginine 4-methyl-coumaryl-7-amide (Z-RR-MCA) (Peptide International). The appropriate buffers were separately employed as controls at each pH. Enzyme activity was measured as described above. The effects of reducing agents were examined under various concentrations of GSH, and pH stability was examined at pH 5.0 and 8.0 by incubating rVX-4 at 37° C. in the appropriate buffer.
Residual activities (%) were determined using Z-LR-MCA as a substrate.

VX-3 = experiment: Substrate hydrolysis kinetics for vivapains (peptide-MCA substrates); assay type: biochemical, Plasmodium vivax; details: pH 5.5, 6.5, 7.5
Method: as §1, with “Enzyme (xVX, 30 μl; 200 nM) was added to 100 mM sodium acetate (220 μl, pH 5.5) containing 5 μM Z-LR-MCA and 10 mM DTT.” left out
as §2

VX-2 = experiment: as above; assay type: biochemical, Plasmodium vivax; details: pH 5.5, 6.5, 7.5
Method: as §1, §2

[7] = tested on: VX-4 mutants containing E180A; experiment: Activity of mutant VX-4s against peptide substrates; assay type: biochemical, Plasmodium vivax; details: 100 mM Tris-HCl pH 7.5, 10 mM DTT, 37° C.
Method: Site-directed mutagenesis was performed using a QuickChange II Site-Directed Mutagenesis Kit (Stratagene, Calif.). A pair of complementary primers with 39 bases was designed and a mutation to replace Ala90 to Ile (A90I), Gly154 to Ser (G154S) or Glu180 to Ala (E180A) was placed in the middle of the primers, as follows: […]
Parental DNA inserted in pQE-30 (Qiagen, Calif.) as prepared in Example 2 was amplified using Pfu Ultra HF DNA polymerase with these primers for 16 cycles in a DNA thermal cycler (Perkin-Elmer). After digestion of the parental DNA with Dpn I, the amplified DNA with nucleotide substitution was incorporated and transformed into E. coli XL1-Blue (Stratagene). The mutations were verified by DNA sequencing. Double and triple point mutagenesis of A90I, G154S, and E180A were also done as described above. Each mutant plasmid was transformed into competent E. coli M15 (pREP4) cells (Qiagen). Each recombinant protein was individually expressed, purified and refolded as described above.
In assays against peptide substrates, all of the mutants harboring A901 and G154S by single or multiple substitutions maintained the pH-dependent substrate specificity of wild-type VX-4. Conversely, those containing E180A lost activity against Z-RR-MCA at pH 7.5 (FIG. 4(C)). […]

[8] = rVX-4, pH 7.5 compared with pH 5.5

For `CC(C)CC(=O)N[C@H](C(=O)N[C@H](C(=O)N[C@@H](CC(C)C)[C@@H](O)CC(=O)N[C@@H](C)C(=O)N[C@@H](CC(C)C)[C@@H](O)CC(=O)O)C(C)C)C(C)C` [pepstatin A] (Isovaleryl-VV[Sta]A[Sta]-OH), the “effect on autocatalytic processing of rPvPM4” value [1] was “completely blocked”.

With `Cc1cc(=O)oc2cc(NC(=O)[C@H](CCCNC(=N)N)NC(=O)[C@H](CC(C)C)NC(=O)OCc3ccccc3)ccc12` [Z-LR-MCA, benzyloxycarbonyl-L-leucyl-L-arginine 4-methyl-coumaryl-7-amide] the “decrease of kcat/Km at pH 7.5” value (VX-4 [2]; [8]) was 5.6 fold and the “pH of maximal enzyme activity” value (VX-4 [3]) was 5.5.

`CC(C)C[C@H](NC(=O)[C@H]1O[C@@H]1C(=O)O)C(=O)NCCCCN=C(N)N` (relative stereo) [E-64, trans-epoxysuccinyl-L-leuciloamido-(4-guanidino) butane] was tested, and the “effect on rVX-4 cleavage of rPvPM4” value (rVX-4 [4]) was “specifically and significantly inhibited”, the “inhibition of protease activity in gelatin-gel electrophoresis” value (rVX-4 [5]) was “completely inhibited” and the “E-64 concentration needed to inhibit rVX-4 depending on pH” value (rVX-4 [6]) was “increased concentrations of E-64 to inhibit rVX-4 at higher pH”.

With `Cc1cc(=O)oc2cc(NC(=O)[C@H](CCCNC(=N)N)NC(=O)[C@H](Cc3ccccc3)NC(=O)OCc3ccccc3)ccc12` [Z-FR-MCA, benzyloxycarbonyl-L-phenylalanyl-L-arginine 4-methyl-coumaryl-7-amide] (Cbz-Phe-Arg-{AMC}) the “hydrolysis by rVX-3” value (VX-3) was “could not hydrolyze”, the “hydrolysis by rVX-2” value (VX-2) was “could not hydrolyze” and the “hydrolysis by rVX-4” value (VX-4 [2]; pH 7.5) was “not hydrolyzed”. For the same compound, the “pH of maximal enzyme activity” value (VX-4 [3]) was 5.5.

For `Cc1cc(=O)oc2cc(NC(=O)[C@H](CCCNC(=N)N)NC(=O)[C@H](CCCNC(=N)N)NC(=O)OCc3ccccc3)ccc12` [Z-RR-MCA, benzyloxycarbonyl-L-arginyl-L-arginine 4-methyl-coumaryl-7-amide] (Cbz-Arg-Arg-{AMC}), the “hydrolysis by rVX-3” value (VX-3) was “could not hydrolyze”, the “hydrolysis by rVX-2” value (VX-2) was “could not hydrolyze” and the “increase of kcat/Km at pH 7.5” value (VX-4 [2]; [8]) was 2.6 fold. For the same compound, the “activity of E180A-containing VX-4 mutants against substrate” value [7] was “lost activity” and the “pH of maximal enzyme activity” value (VX-4 [3]) was 6.5.
